The results in this text go back to patent US20220169654A1, “New Organic Compounds” (Servier Pharmaceuticals LLC, priority 2020, published 2022).

One experiment concerns the target T1, MAT2A homodimer (Homo sapiens, UniProt P31153).
T1 construct: inferred from Ni sepharose purification with imidazole elution; made in house; host or cells: Sf9 insect cells, baculovirus (Bac to Bac, pFASTBAC1)
As to the kind of experiment: MAT2A inhibition (biochemical, liberated phosphate, PiColorLock Gold). The following applies: recombinant MAT2A homodimer; IC50 bin with Max Inh.; read-out: Enzyme Inhibition Bin. The protocol:
Mat2A protein was expressed by recombinant baculovirus in SF9 infected cells using the Bac to Bac system cloned into the pFASTBAC1 vector (Invitrogen, Carlsbad, Calif.). Recombinant MAT2A was isolated from the cell lysate of 150 g of infected cells using HP Ni sepharose column chromatography. Recombinant MAT2A homodimer was eluted with 250 and 500 mM imidazole, and fractions containing MAT2A were identified by sodium dodecyl sulfate polyacrylamide gel electrophoresis and pooled.
For determination of the inhibitory potency of compounds against the MAT2A homodimer, protein was diluted to 4 μg/mL in assay buffer (50 mM Tris, pH 8.0, 50 mM KCl, 15 mM MgCl2, 0.3 mM EDTA, 0.005% [w/v] bovine serum albumin [BSA]). Test compound was prepared in 100% dimethyl sulfoxide (DMSO) at 50× the desired final concentration. A 1 μL volume of compound dilution was added to 40 μL of enzyme dilution and the mixture was allowed to equilibrate for 60 minutes at 25° C. The enzymatic assay was initiated by the addition of 10 μL of substrate mix (500 μM ATP, pH 7.0, 400 μM L-methionine in 1× assay buffer), and the mixture was incubated for a further 60 minutes at 25° C. The reaction was halted and the liberated phosphate released by the enzyme in stoichiometric amounts by the production of S-adenosyl methionine (SAM) was measured using the PiColorLock Gold kit (Innova Biosciences, UK). Absolute product amounts were determined by comparison to a standard curve of potassium phosphate buffer, pH 8.0. The compounds were also tested in a secondary assay utilizing 1 μg/mL MAT2A and incubated for 5 hours at 25° C. before halting and processing as above.
Specific compounds disclosed herein were tested in the foregoing assay and they were determined to inhibit MAT2A with an IC50. See, Table 1 below.

Experiment [1] has as its system SAM in HCT116 human colon carcinoma cell line with MTAP gene deleted (MTAP −/−). In words: Cellular assay of target engagement (SAM), LC-MS/MS, 72 hrs. The settings on record: HCT-116, IC50 bin with Max Inh., read-out: Cell 72 h SAM Inhibition (MTAP −/−). Type of experiment: cell-based. As to the method: Measurement of MAT2A activity in cells was made by direct quantitation of the abundance of the product of its enzymatic activity, SAM. Cancer cells were treated with candidate MAT2A inhibitors for a suitable incubation period, and the cells were then lysed using a reagent which quenched any further enzyme activity. Soluble metabolites including SAM were collected and SAM itself was directly measured from the lysate using quantitative LC-MS/MS.
A typical assay was performed using an HCT116 human colon carcinoma cell line which was genetically engineered to delete the MTAP gene (commercially available from Horizon Discovery). This cell line was utilized because it was determined that loss of the MTAP gene predicts sensitivity to MAT2A inhibitors. Cells were plated in 96-well dishes at appropriate cell density. Following 24 hours, cells were then treated with the candidate MAT2A inhibitor. Prior to addition to cells, the compound was first serially diluted in 100% DMSO, typically as a 3-fold serial dilution starting at 500× top dose with 10 dose points including DMSO only control. Compound was then transferred to a working stock plate in cell culture media by adding 5 μL of compound in DMSO to 495 μL of cell culture media. This working stock was then added to cells via a further 5-fold dilution, by adding 25 μL of working stock to 100 μL of cells in culture media. Following compound addition, cells were incubated at 37° C./5% CO2 for 72 hrs.
To quantitate SAM levels following compound treatment, cells were gently washed once in ammonium carbonate buffer (75 mM at pH 7.4), placed on dry ice, and lysed with metabolite extraction buffer (80% cold methanol and 20% water (v/v) with acetic acid at 1M final concentration with 200 ng/mL deuterated d3-SAM as internal control). Following centrifugation at 4° C. at 3,200 rpm for 30 minutes, the supernatant was collected and stored at −80° C. until analysis by Liquid Chromatography with tandem Mass Spectrometry (LC-MS/MS). LC-MS/MS analysis was performed using an API6500 Mass Spectrometer (Sciex, Framingham, Mass., USA) operating in positive ion spray mode and equipped with a Waters UPLC Acquity (Waters, Milford, Mass., USA) BEH Amide column. Multiple Reaction Monitoring data was acquired for SAM and the d3-SAM standard, using a mass transition pair at m/z 399.2→250.1 and 402.2→250.1, respectively. In a typical LC-MS/MS analysis, the initial flow rate was 0.5 ml/min of 25% mobile phase A (acetonitrile and water at 5:95 (v/v) with 1% formic acid and 10 mM ammonium acetate) and 75% mobile phase B (acetonitrile and water at 95:5 (v/v) with 1% formic acid and 10 mM ammonium acetate), 0.2-0.5 minutes with 75%-35% mobile phase B, 25%-65% mobile phase A, at 0.5 min 65% mobile phase A and 35% mobile phase B, 1.0-1.1 minutes with 35%-75% mobile phase B, 65%-25% mobile phase A, at 1.1 min 25% mobile phase A and 75% mobile phase B with a total run time of 1.5 minutes.
Specific compounds disclosed herein were tested in the foregoing assay and they were determined to inhibit SAM with an IC50. See, Table 1 below.

The next experiment deals with HCT116 MTAP−/−. As to the kind of experiment: Inhibition of cellular proliferation, 4 days, Cell Titer Glo, HCT116 MTAP−/−. The experiment is classed as cell-based. The settings on record: Homo sapiens, HCT-116, 96 h, IC50 bin with Max Inh., read-out: 4 Day Relative Growth Inhibition (MTAP −/−). The protocol: (§1) Test compound impact on cancer cell growth was assessed by treating cancer cells with compound for 4 days and then measuring proliferation using an ATP-based cell proliferation readout (Cell Titer Glo, Promega Corporation).
(§2) In a typical assay an isogenic pair of HCT116 human colon carcinoma cell lines which vary only in MTAP deletion status (HCT116 MTAP+/+ and HCT116 MTAP−/−) were plated in 96-well dishes at appropriate cell density. Following 24 hours, cells were then treated with the candidate MAT2A inhibitor. Prior to addition to cells, the compound was first serially diluted in 100% DMSO, typically as a 3-fold serial dilution starting at 500× top dose with 10 dose points including DMSO only control. Compound was then transferred to a working stock plate in cell culture media by adding 5 μL of compound in DMSO to 495 μL of cell culture media. This working stock was then added to cells via a further 5-fold dilution, by adding 25 μL of working stock to 100 μL of cells in culture media. Following compound addition, cells were incubated at 37° C./5% CO2 for 4 days.
(§3) To measure inhibition of cellular proliferation, cells were allowed to equilibrate to room temperature for 30 minutes, and were then treated with 125 μL of Cell Titer Glo reagent. The plate was then covered with aluminum foil and shaken for 15 minutes to ensure complete mixing and full cell lysis. Luminescent signal was then measured using a plate-based luminometer Veritas version 1.9.2 using ATP standard curve to confirm assay reproducibility from run to run. This luminescence measure was converted to a proliferation index by subtracting from each data point the ATP luminescence signal measured from a bank (no cells) well and dividing by the ATP luminescence signal measured in 0.2% DMSO control well adjusted for signal in blank well. Compound activity was then represented as a percentage change in proliferation relative to a within-plate DMSO control against log 10 of compound concentration in molar (M) units.
(§4) Specific compounds disclosed herein were tested in the foregoing assay and they were determined to inhibit cellular proliferation with an IC50. See, Table 1 below.
For orientation: In ATP-based viability assays light output follows the ATP content of the culture.

A further experiment deals with HCT116 MTAP+/+. In words: Inhibition of cellular proliferation, 4 days, Cell Titer Glo, HCT116 MTAP+/+. The experiment is classed as cell-based. The settings on record: Homo sapiens, HCT-116, 96 h, IC50 bin with Max Inh., read-out: 4 Day Relative Growth Inhibition (MTAP +/+). The protocol: as §1, §2, §3, §4

Molecules are shown by their SMILES. pIC50: −log10 of the molar value.

T1 sequence (P31153 whole entry): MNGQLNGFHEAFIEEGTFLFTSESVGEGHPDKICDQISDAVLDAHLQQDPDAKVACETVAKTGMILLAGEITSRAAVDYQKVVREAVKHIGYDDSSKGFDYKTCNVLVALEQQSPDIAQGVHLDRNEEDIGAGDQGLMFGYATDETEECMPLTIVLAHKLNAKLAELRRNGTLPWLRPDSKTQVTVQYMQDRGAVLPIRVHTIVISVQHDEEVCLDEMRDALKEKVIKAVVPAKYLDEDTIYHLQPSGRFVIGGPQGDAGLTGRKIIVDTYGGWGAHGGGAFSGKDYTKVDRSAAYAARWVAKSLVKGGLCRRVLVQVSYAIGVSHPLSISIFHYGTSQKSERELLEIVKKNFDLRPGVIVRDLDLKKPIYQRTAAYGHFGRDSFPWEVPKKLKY

For `Cc1ccc(-c2c(=O)n(-c3ccc4nn(C)cc4c3)nc3c(C(F)(F)F)cn(CC4CC4)c23)cn1` [Example 258, 5-(cyclopropylmethyl)-2-(2-methyl-2H-indazol-5-yl)-4-(6-methylpyridin-3-yl)-7-(trifluoromethyl)-2,5-dihydro-3H-pyrrolo[3,2-c]pyridazin-3-one], the pIC50 at MAT2A homodimer is over 7.00; in experiment [1], over 7.00; in the experiment with HCT116 MTAP−/−, over 7.00; in the experiment on HCT116 MTAP+/+ it was 6.00 to 7.00.

Take `CNC(=O)c1ccc(-c2c(=O)n(-c3ccc4nn(C)cc4c3)nc3ccn(CC4CC4)c23)cn1` [Example 144, 5-(5-(cyclopropylmethyl)-2-(2-methyl-2H-indazol-5-yl)-3-oxo-3,5-dihydro-2H-pyrrolo[3,2-c]pyridazin-4-yl)-N-methylpicolinamide]: the pIC50 on MAT2A homodimer is 6.00 to 7.00; in experiment [1], 6.00 to 7.00; in the experiment on HCT116 MTAP−/−, under 6.00; in the experiment on HCT116 MTAP+/+ it was under 6.00.

`CCc1cn(CC2CC2)c2c(-c3ccc(C4CC4)nc3)c(=O)n(-c3ccc4nn(C)cc4c3)nc12` [Example 247, 5-(cyclopropylmethyl)-4-(6-cyclopropylpyridin-3-yl)-7-ethyl-2-(2-methyl-2H-indazol-5-yl)-2,5-dihydro-3H-pyrrolo[3,2-c]pyridazin-3-one]: the pIC50 at MAT2A homodimer was over 7.00; in experiment [1] it was over 7.00; in the experiment with HCT116 MTAP−/− it was over 7.00; in the experiment with HCT116 MTAP+/+ it was under 6.00.

In the case of `Cn1cc2cc(-n3nc4[nH]c(=O)n(CC5CC5)c4c(-c4ccc(Cl)cc4)c3=O)ccc2n1` [Example 205, 4-(4-chlorophenyl)-5-(cyclopropylmethyl)-2-(2-methyl-2H-indazol-5-yl)-2,7-dihydro-3H-imidazo[4,5-c]pyridazine-3,6(5H)-dione], the pIC50 at MAT2A homodimer is over 7.00; in experiment [1], over 7.00; in the experiment on HCT116 MTAP−/− it was 6.00 to 7.00; in the experiment on HCT116 MTAP+/+, under 6.00.

As for `Cn1cc2cc(-n3nc4c(S(N)(=O)=O)cn(CC5CC5)c4c(-c4ccc(C5CC5)nc4)c3=O)ccc2n1` [Example 185, 5-(cyclopropylmethyl)-4-(6-cyclopropylpyridin-3-yl)-2-(2-methyl-2H-indazol-5-yl)-3-oxo-3,5-dihydro-2H-pyrrolo[3,2-c]pyridazine-7-sulfonamide], the pIC50 at MAT2A homodimer is over 7.00; in experiment [1], 6.00 to 7.00; in the experiment on HCT116 MTAP−/−, 6.00 to 7.00; in the experiment on HCT116 MTAP+/+ it was under 6.00.

In the case of `CCc1ccc(-c2c(=O)n(-c3ccc4nn(C)cc4c3)nc3c(C#N)cn(CC4CC4)c23)cn1` [Example 136, 5-(cyclopropylmethyl)-4-(6-ethylpyridin-3-yl)-2-(2-methyl-2H-indazol-5-yl)-3-oxo-3,5-dihydro-2H-pyrrolo[3,2-c]pyridazine-7-carbonitrile], the pIC50 on MAT2A homodimer is over 7.00; in experiment [1] it was over 7.00; in the experiment with HCT116 MTAP−/−, over 7.00; with HCT116 MTAP+/+ it was 6.00 to 7.00.

With `CNC(=O)c1cn(CC2CC2)c2c(-c3ccc(Cl)cc3)c(=O)n(-c3ccc4nn(C)cc4c3)nc12` [Example 171, 4-(4-chlorophenyl)-5-(cyclopropylmethyl)-N-methyl-2-(2-methyl-2H-indazol-5-yl)-3-oxo-3,5-dihydro-2H-pyrrolo[3,2-c]pyridazine-7-carboxamide], the pIC50 (at MAT2A homodimer; in experiment [1]; with HCT116 MTAP−/−; in the experiment on HCT116 MTAP+/+) was over 7.00 each time.

Take `Cn1cc2cc(-n3nc4[nH]cc(CC5CC5)c4c(-c4ccc(OC(F)F)cc4)c3=O)ccc2n1` [Example 271, 5-(cyclopropylmethyl)-4-(4-(difluoromethoxy)phenyl)-2-(2-methyl-2H-indazol-5-yl)-2,7-dihydro-3H-pyrrolo[2,3-c]pyridazin-3-one]: the pIC50 on MAT2A homodimer was over 7.00; in experiment [1], over 7.00; in the experiment with HCT116 MTAP−/− it was over 7.00; in the experiment on HCT116 MTAP+/+ it was 6.00 to 7.00.

Take `Cn1cc2cc(-n3nc4ccn(CC5CC5)c4c(-c4ccc(OC(F)F)cc4)c3=O)ccc2n1` [Example 101, 5-(cyclopropylmethyl)-4-(4-(difluoromethoxy)phenyl)-2-(2-methyl-2H-indazol-5-yl)-2,5-dihydro-3H-pyrrolo[3,2-c]pyridazin-3-one]: the pIC50 at MAT2A homodimer was over 7.00; in experiment [1], over 7.00; in the experiment on HCT116 MTAP−/−, over 7.00; in the experiment on HCT116 MTAP+/+, under 6.00.

As for `Cc1ccc(-c2c(=O)n(-c3ccc4nn(C)cc4c3)nc3ccn(CC4CC4)c23)cn1` [Example 103, 5-(cyclopropylmethyl)-2-(2-methyl-2H-indazol-5-yl)-4-(6-methylpyridin-3-yl)-2,5-dihydro-3H-pyrrolo[3,2-c]pyridazin-3-one], the pIC50 on MAT2A homodimer was over 7.00; in experiment [1], over 7.00; in the experiment with HCT116 MTAP−/− it was over 7.00; in the experiment on HCT116 MTAP+/+, 6.00 to 7.00.
